Measured values: publication PMC3138527 (2011)

How the values were obtained:
Format in all cases: biochemical
[1] = target: T1, triosephosphate isomerase (Tbb TIM) (Trypanosoma brucei, UniProt P04789); assay: activation of the TIM-catalyzed reaction of [[…]-13C]-GA in D2O followed by 1H NMR
[2] = target: T1, triosephosphate isomerase (Tbb TIM); assay: coupled enzyme assay
[3] = target: T1, triosephosphate isomerase (Tbb TIM); assay: 1H NMR turnover in D2O

T1 sequence (P04789 whole entry): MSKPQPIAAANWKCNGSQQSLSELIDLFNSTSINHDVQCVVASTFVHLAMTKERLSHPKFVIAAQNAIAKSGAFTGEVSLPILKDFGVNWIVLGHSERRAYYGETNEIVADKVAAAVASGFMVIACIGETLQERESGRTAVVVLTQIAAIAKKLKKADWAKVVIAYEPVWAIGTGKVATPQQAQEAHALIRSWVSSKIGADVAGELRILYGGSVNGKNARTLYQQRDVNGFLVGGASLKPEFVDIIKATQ

`O=[PH](O)O` [phosphite dianion] gave a Kd [1] of 19 ± 3 mM.

`O=C[C@H](O)COP(=O)(O)O` [GAP, (R)-glyceraldehyde 3-phosphate] showed a Km [2] of 250 µM.

For `O=CCO` [[1-^13C]-GA, glycolaldehyde], the “1H NMR turnover in D2O; kcat/Km with saturating phosphite” value [3] was 64 ± 6 M⁻¹ s⁻¹.
